# Source: ChEMBL document CHEMBL4831521, “Dual High-Resolution α-Glucosidase and PTP1B Inhibition Profiling Combined with HPLC-PDA-HRMS-SPE-NMR Analysis for the Identification of Potentially Antidiabetic Chromene Meroterpenoids from Rhododendron capitatum” (J Nat Prod, 2021)
# Columns and labels:
# [1] = tested on: Saccharomyces cerevisiae; experiment: Inhibition of Saccharomyces cerevisiae alpha-glucosidase at 100 uM using pNPG as substrate preincubated for 10 mins followed by substrate addition and measured for 35 mins by microplate photometric method; details: time 45.0 min
# [2] = Inhibition of Saccharomyces cerevisiae alpha-glucosidase using pNPG as substrate preincubated for 10 mins followed by substrate addition and measured for 35 mins by microplate photometric method
# [3] = target: T1, Tyrosine-protein phosphatase non-receptor type 1 (Homo sapiens, UniProt P18031); experiment: Inhibition of human recombinant PTP1B (1 to 322 residues) expressed in Escherichia coli using pNPP as substrate preincubated with substrate for 10 mins followed by enzyme addition and measured for 10 mins by absorbance based analysis
# T1 sequence (P18031 whole entry): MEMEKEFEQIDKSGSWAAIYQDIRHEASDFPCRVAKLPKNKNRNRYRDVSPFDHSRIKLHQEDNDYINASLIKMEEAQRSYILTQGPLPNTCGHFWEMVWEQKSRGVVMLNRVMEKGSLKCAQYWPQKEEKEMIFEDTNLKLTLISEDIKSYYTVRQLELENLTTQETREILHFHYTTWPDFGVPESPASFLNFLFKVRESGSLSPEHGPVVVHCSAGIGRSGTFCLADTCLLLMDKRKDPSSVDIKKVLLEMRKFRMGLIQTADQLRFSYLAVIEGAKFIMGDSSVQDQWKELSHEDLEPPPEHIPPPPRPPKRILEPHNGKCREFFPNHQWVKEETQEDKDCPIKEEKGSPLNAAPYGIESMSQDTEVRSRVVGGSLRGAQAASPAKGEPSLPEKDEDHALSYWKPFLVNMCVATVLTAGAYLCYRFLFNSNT
inhibition [1] [%],IC50 [2] [µM],IC50 [3] [µM],Compound
15.6,–,–,CO[C@](C)(CCC=C(C)C)[C@H](O)CC[C@]1(C)C=Cc2c(cc(C)c(C(=O)O)c2O)O1 (mixture of isomers)
99.8,18.6,6,C=C(CCC=C(C)C)[C@H](O)CC[C@]1(C)C=Cc2c(cc(C)c(C(=O)O)c2O)O1
–,796,–,C[C@H]1O[C@H](O[C@H]2[C@H](O)[C@@H](O)[C@@H](O[C@H]3[C@H](O)[C@@H](O)C(O)O[C@@H]3CO)O[C@@H]2CO)[C@H](O)[C@@H](O)[C@@H]1N[C@H]1C=C(CO)[C@@H](O)[C@H](O)[C@H]1O (some centres undefined) [ACARBOSE]
17.2,–,–,COC(C)(C)[C@H](O)CC/C(C)=C/CC[C@]1(C)C=Cc2c(cc(C)c(C(=O)O)c2O)O1
–,–,68.1,C/C(=C\CC[C@]1(C)C=Cc2c(cc(C)c(C(=O)O)c2O)O1)C/C=C\C(C)(C)O
99.7,8,3.6,CC(C)=CCC/C(C)=C/CC/C(C)=C/Cc1c(O)cc(C)c(C(=O)O)c1O [GRIFOLIC ACID]
63.5,93.5,36.3,C=C(C)[C@H](O)CCC(=C)[C@H](O)CC[C@]1(C)C=Cc2c(cc(C)c(C(=O)O)c2O)O1
-1.8,–,–,CC(C)=CCC[C@@](C)(O)[C@H](O)CC[C@]1(C)C=Cc2c(cc(C)c(C(=O)O)c2O)O1 (relative stereo)
23.8,–,53.6,CO[C@@](C)(CCC=C(C)C)[C@H](O)CC[C@]1(C)C=Cc2c(cc(C)c(C(=O)O)c2O)O1 (relative stereo)
36.9,–,28.2,C=C(C/C=C/C(C)(C)O)[C@H](O)CC[C@]1(C)C=Cc2c(cc(C)c(C(=O)O)c2O)O1
99.6,21.2,10.3,C=C(C)[C@H](O)CC/C(C)=C/CC[C@]1(C)C=Cc2c(cc(C)c(C(=O)O)c2O)O1
27.5,–,19.9,C=C(C)/C=C/C/C(C)=C/CC[C@]1(C)C=Cc2c(cc(C)c(C(=O)O)c2O)O1
14.4,–,–,Cc1c(O)cc(O)c2c1O[C@H](c1ccc(O)cc1)CC2=O
11.2,–,–,Cc1c(O)c(C)c2c(c1O)C(=O)C[C@@H](c1ccc(O)cc1)O2
-1.8,–,–,CC(C)=CCC[C@](C)(O)[C@H](O)CC[C@]1(C)C=Cc2c(cc(C)c(C(=O)O)c2O)O1 (mixture of isomers)

Compound,inhibition [1] [%],IC50 [2] [µM],IC50 [3] [µM]
CC(C)=CCC/C(C)=C/CC[C@]1(C)C=Cc2c(cc(C)c(C(=O)O)c2O)O1,99.9,10.6,2.5
